Data: patent US20250368647A1, “NITROGEN CONTAINING CONDENSED 2,3-DIHYDROQUINAZOLINONE COMPOUNDS AS NAV1.8 INHIBITORS” (GLAXOSMITHKLINE INTELLECTUAL PROPERTY DEVELOPMENT LIMITED, priority 2022, published 2025)

The molecules below were run against human Nav1.8 (Homo sapiens (Human), UniProt Q9Y5Y9) (assay: QPatch 48 HTX voltage-clamp electrophysiology, half inactivation state (V1/2) protocol, HEK293-Nav1.8 cells). Settings: HEK293 cells expressing human Nav1.8, human Navβ1 and human TREK1, P2 current.
Format: cell-based
Description: Human embryonic kidney 293 cells (HEK293) expressing human Nav1.8, human Navβ1 and human TREK1 (HEK293-Nav1.8) were grown in T150 cell culture flasks at 37° C., 5% CO2 incubator. HEK293-Nav1.8 were passaged every 2-3 days when confluency reached 80-90% in T150 cell culture flasks.
Pharmacological assessment of compounds of the invention was performed using the QPatch 48 HTX electrophysiological platform. HEK293-Nav1.8 cells were prepared on the day of use by removing culture media, washing in DPBS, adding Accutase (2 mL to cover the surface, aspirate 1 mL then 1-2 minutes at 37° C.) followed by addition of CHO-SFM II to stop the enzyme digestion and in order to obtain a suspension of 3×10^6 cell/mL.
Compounds of the invention were prepared in an extracellular solution of the following composition: NaCl (145 mM), KCl (4 mM), CaCl2) (2 mM), MgCl (2 mM), HEPES (1 mM), Glucose (10 mM), pH 7.4 with NaOH Osmolality 300 mOsM/L. An intracellular solution of the following composition was used: CsF (115 mM), CsCl (20 mM), NaCl (5 mM), EGTA (10 mM), HEPES (10 mM), Sucrose (20 mM), pH 7.2 with CsOH Osmolality 310 mOsm/L.
Utilizing the voltage-clamp mode in the QPatch 48 HTX system a half inactivation state voltage protocol (V1/2) was used to determine pharmacological activity of compounds of the invention at Nav1.8 ion channels. A V1/2 protocol was utilized with the following voltage steps: a holding voltage of −100 mV was established followed by a 20 ms voltage step to 0 mV (P1), followed by an inactivating voltage step at −46 mV for 8 seconds, followed by a step to −100 mV for 20 ms, before a 20 ms step to 0 mV (P2), then returned to the holding voltage of −100 mV. This voltage protocol was repeated at a frequency of every 15 seconds, the current magnitude was quantified at the P2 step throughout the recording. Inhibition of the measured current amplitude with compounds of the invention was analyzed by fitting a 4-6 points dose-response curve allowing determination of the fifty percent inhibition concentration (IC50). P2 currents were normalized according to measurements made at baseline (Baseline, vehicle only), after compound (Input, at each test concentration), and after positive reference compound (FullResponse, to achieve complete block), fit to the following equation: […]
To assess current run-down over the course of the experiment vehicle-only wells were utilized and the normalized current with vehicle-only (n.IVEH) was determined. To correct the compound response for run-down, the currents were corrected according to the following formula: […]
Compound inhibition was fitted to the following Hill Equation to estimate the half maximal inhibition concentration (IC50)
[formula] • where Y is the normalized run-down corrected inhibition relative to the vehicle control (equivalent to n.IRD_Correct), C the test compound concentration, IC50 the concentration of test compound to inhibit the sodium current by 50%, and h the Hill coefficient.

Sequence of human Nav1.8 (Q9Y5Y9 whole entry): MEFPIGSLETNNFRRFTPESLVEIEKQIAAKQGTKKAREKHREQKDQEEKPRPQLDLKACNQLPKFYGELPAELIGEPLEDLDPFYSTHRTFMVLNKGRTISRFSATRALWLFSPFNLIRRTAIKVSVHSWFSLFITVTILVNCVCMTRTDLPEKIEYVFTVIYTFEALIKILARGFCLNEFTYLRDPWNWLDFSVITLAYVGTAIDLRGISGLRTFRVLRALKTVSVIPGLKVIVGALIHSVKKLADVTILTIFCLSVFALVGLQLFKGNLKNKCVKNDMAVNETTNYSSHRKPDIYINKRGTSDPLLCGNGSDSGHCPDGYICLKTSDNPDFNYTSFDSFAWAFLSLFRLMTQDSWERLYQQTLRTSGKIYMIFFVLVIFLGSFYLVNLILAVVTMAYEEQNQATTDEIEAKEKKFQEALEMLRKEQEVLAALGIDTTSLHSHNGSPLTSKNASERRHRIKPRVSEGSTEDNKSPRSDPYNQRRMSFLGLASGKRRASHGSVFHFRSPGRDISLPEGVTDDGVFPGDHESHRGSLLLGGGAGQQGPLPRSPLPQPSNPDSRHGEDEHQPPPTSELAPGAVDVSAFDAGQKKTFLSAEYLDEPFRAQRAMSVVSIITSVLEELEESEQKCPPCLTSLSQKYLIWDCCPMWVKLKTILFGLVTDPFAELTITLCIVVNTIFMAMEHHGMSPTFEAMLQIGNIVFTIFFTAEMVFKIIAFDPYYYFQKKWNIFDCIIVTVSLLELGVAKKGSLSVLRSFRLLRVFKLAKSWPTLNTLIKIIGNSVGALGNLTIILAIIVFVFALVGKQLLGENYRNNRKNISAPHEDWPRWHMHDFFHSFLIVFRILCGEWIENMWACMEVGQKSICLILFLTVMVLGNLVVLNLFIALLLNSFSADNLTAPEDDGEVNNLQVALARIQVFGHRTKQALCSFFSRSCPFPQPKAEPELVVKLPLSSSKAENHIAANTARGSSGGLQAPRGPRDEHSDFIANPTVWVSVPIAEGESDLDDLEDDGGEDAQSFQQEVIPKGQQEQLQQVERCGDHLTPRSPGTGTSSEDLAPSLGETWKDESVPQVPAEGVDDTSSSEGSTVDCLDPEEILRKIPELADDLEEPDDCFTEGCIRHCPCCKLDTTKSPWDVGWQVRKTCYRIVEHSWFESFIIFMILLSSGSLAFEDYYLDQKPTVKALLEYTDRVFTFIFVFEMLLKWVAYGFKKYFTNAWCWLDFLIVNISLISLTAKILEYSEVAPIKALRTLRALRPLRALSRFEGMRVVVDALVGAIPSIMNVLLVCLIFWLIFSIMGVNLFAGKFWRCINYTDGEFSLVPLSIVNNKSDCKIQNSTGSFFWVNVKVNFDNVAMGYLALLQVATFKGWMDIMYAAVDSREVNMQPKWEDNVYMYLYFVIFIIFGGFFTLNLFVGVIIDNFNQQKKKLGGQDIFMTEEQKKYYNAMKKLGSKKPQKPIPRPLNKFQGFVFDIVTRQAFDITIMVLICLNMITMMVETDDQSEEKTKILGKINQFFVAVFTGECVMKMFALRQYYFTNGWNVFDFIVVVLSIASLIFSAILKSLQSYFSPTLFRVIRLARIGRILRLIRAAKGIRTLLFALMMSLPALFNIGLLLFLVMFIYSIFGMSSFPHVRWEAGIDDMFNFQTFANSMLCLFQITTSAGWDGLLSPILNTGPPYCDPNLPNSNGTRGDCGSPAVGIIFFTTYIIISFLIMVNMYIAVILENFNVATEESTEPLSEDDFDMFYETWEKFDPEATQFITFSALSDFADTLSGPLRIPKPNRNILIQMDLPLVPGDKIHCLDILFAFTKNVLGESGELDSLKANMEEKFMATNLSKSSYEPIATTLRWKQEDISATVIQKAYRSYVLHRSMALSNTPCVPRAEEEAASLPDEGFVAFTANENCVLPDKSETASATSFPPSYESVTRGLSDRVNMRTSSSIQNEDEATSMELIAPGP
Sequence of human Nav1.8 (Q07699 19-218 partner): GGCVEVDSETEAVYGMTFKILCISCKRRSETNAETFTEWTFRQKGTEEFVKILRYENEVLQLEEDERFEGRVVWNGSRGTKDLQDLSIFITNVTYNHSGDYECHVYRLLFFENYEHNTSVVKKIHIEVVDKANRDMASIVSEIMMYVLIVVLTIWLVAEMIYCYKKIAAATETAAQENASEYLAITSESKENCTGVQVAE

Row | Nav1.8, pIC50 | SMILES
1 | 7.3 | CC1(C)CNCc2cc(F)ccc2N2CN(C(=O)c3cc(F)c(C(F)(F)F)cc32)c2ccc(=O)[nH]c21 [Example 134, 2,8-Difluoro-13,13-dimethyl-3-(trifluoromethyl)-10,11,12,13-tetrahydro-19H-5,18-methanodibenzo[c,f]pyrido[3,2-j][1,5,9]triazacyclotridecine-15,19(14H)-dione]
2 | 7.7 | O=C1c2cc(C(F)(F)F)c(F)cc2N2CN1c1ccc(=O)[nH]c1NCCCc1cc(F)ccc12 [Example 90, 3,8-Difluoro-2-(trifluoromethyl)-10,11,12,13-tetrahydro-19H-5,18-methanodibenzo[f,i]-pyrido[2,3-b][1,4,8]triazacyclotridecine-15,19(14H)-dione]
3 | 8.9 | O=C1c2cc(F)c(C(F)(F)F)cc2N2CN1c1ccc(=O)[nH]c1CCNCc1c2ccc(F)c1Cl [Example 58, 9-Chloro-2,8-difluoro-3-(trifluoromethyl)-10,11,12,13-tetrahydro-19H-5,18-methano-dibenzo[c,f]pyrido[3,2-j][1,5,9]triazacyclotridecine-15,19(14H)-dione]
4 | 8.1 | Cl.O=C1c2cc(F)c(C(F)(F)F)cc2N2CN1c1ccc(=O)[nH]c1CCNCc1c2ccc(F)c1F [Example 48, 2,8,9-Trifluoro-3-(trifluoromethyl)-10,11,12,13-tetrahydro-19H-5,18-methanodibenzo[c,f]pyrido[3,2-j][1,5,9]triazacyclotridecine-15,19(14H)-dione hydrochloride]

More lines, now with the values behind:

Row | SMILES | Nav1.8, pIC50
5 | Cl.O=C1c2cc(F)c(F)cc2N2CN1c1ccc(=O)[nH]c1CCNCc1c(C(F)F)cccc12 [Example 79, 9-(Difluoromethyl)-2,3-difluoro-10,11,12,13-tetrahydro-19H-5,18-methanodibenzo[c,f]pyrido[3,2-j][1,5,9]triazacyclotridecine-15,19(14H)-dione hydrochloride] | 7.1
6 | O=C1c2cnc(C(F)(F)F)cc2N2CN1c1ccc(=O)[nH]c1CCCCCc1cc(F)ccc12 [Example 9, 3^4-Fluoro-2^7-(trifluoromethyl)-1^1,1^2,2^1,2^2,2^3,2^4-hexahydro-2(3,1)-pyrido[4,3-d]pyrimidina-1(5,6)-pyridina-3(1,2)-benzenacyclooctaphane-1^2,2^4-dione] | 7.3
7 | O=C1c2cc(C(F)(F)F)ccc2N2CN1c1ccc(=O)[nH]c1CNCCCc1cc(F)ccc12 [Example 104, 3^4-Fluoro-2^6-(trifluoromethyl)-1^1,1^2,2^1,2^2,2^3,2^4-hexahydro-7-aza-2(3,1)quinazolina-1(5,6)-pyridina-3(1,2)-benzenacyclooctaphane-1^2,2^4-dione] | 6.9
8 | O=C1c2cc(C(F)(F)F)ccc2N2CN1c1ccc(=O)[nH]c1CCNCc1cc(F)ccc12 [Example 41, 8-Fluoro-2-(trifluoromethyl)-10,11,12,13-tetrahydro-19H-5,18-methanodibenzo[c,f]pyrido[3,2-f][1,5,9]triazacyclotridecine-15,19(14H)-dione] | 7.3
9 | O=C1c2ccc(C(F)(F)F)cc2N2CN1c1ccc(=O)[nH]c1CCCCc1cc(F)ccc12 [Example 6, 8-fluoro-3-(trifluoromethyl)-10,11,12,13-tetrahydro-19H-5,18-methanodibenzo[b,l]pyridino[3,2-f][1,5]diazacyclotridecine-15,19(14H)-dione] | 7.1
10 | Cl.O=C1c2cc(F)c(F)cc2N2CN1c1ccc(=O)[nH]c1CCNCc1cc(Cl)ccc12 [Example 76, 8-Chloro-2,3-difluoro-10,11,12,13-tetrahydro-19H-5,18-methanodibenzo[c,f]pyrido[3,2-j][1,5,9]triazacyclotridecine-15,19(14H)-dione hydrochloride] | 7.2
11 | O=C1c2cc(Cl)cnc2N2CN1c1ccc(=O)[nH]c1CCNCc1cc(F)ccc12 [Example 42, 2-Chloro-8-fluoro-10,11,12,13-tetrahydro-19H-5,18-methanodibenzo[c]dipyrido[2,3-f:3′,2′-j][1,5,9]triazacyclotridecine-15,19(14H)-dione] | 6.9
12 | N#Cc1cc2c(cc1Cl)C(=O)N1CN2c2ccc(F)cc2CNCCc2[nH]c(=O)ccc21 [Example 55, 2-Chloro-8-fluoro-15,19-dioxo-10,11,12,13,14,15-hexahydro-19H-5,18-methano-dibenzo[c,f]pyrido[3,2-j][1,5,9]triazacyclotridecine-3-carbonitrile] | 7.2
13 | O=C1c2ccc(C(F)(F)F)cc2N2CN1c1ccc(=O)[nH]c1NCCCCc1cc(F)ccc12 [Example 12, 3^4-Fluoro-2^7-(trifluoromethyl)-1^1,1^2,2^1,2^2,2^3,2^4-hexahydro-8-aza-2(3,1)-quinazolina-1(5,6)-pyridina-3(1,2)-benzenacyclooctaphane-1^2,2^4-dione] | 7.6
14 | Cl.O=C1c2cc(F)c(F)cc2N2CN1c1ccc(=O)[nH]c1CCNCc1c2ccc(Cl)c1Cl [Example 77, 8,9-Dichloro-2,3-difluoro-10,11,12,13-tetrahydro-19H-5,18-methanodibenzo[c,f]pyrido[3,2-j][1,5,9]triazacyclotridecine-15,19(14H)-dione hydrochloride] | 8.7
15 | Cl.O=C1c2cc(F)c(Cl)cc2N2CN1c1ccc(=O)[nH]c1CCNCc1cc(F)ccc12 [Example 46, 3-Chloro-2,8-difluoro-10,11,12,13-tetrahydro-19H-5,18-methanodibenzo[c,f]pyrido[3,2-j][1,5,9]triazacyclotridecine-15,19(14H)-dione, hydrochloride] | 8

Same assay, conditions: HEK293 cells expressing human Nav1.8, human Navβ1 and human TREK1, P2 current, read-out: Nav1.8, pIC50 (converted)

Row | IC50 | SMILES
16 | 631 nM | CC1Cc2[nH]c(=O)ccc2N2CN(c3ccc(F)cc3CN1)c1cc(C(F)(F)F)c(F)cc1C2=O (single isomer, unassigned; isomer 2) [Example 125, 2,8-difluoro-12-methyl-3-(trifluoromethyl)-10,11,12,13-tetrahydro-19H-5,18-methanodibenzo[c,f]pyrido[3,2-j][1,5,9]triazacyclotridecine-15,19(14H)-dione, Isomer 2]
17 | 6.31 nM | C[C@H]1CCNc2[nH]c(=O)ccc2N2CN(c3cc(C(F)(F)F)c(F)cc3C2=O)c2ccc(F)c(F)c21 [Example 132, (10S)-2,8,9-trifluoro-10-methyl-3-(trifluoromethyl)-10,11,12,13-tetrahydro-19H-5,18-methanodibenzo[f,i]pyrido[2,3-b][1,4,8]triazacyclotridecine-15,19(14H)-dione]
18 | 631 nM | CC[C@@H]1NCCc2[nH]c(=O)ccc2N2CN(c3cc(C(F)(F)F)c(F)cc3C2=O)c2ccc(F)cc21 [Example 128, (10S)-10-ethyl-2,8-difluoro-3-(trifluoromethyl)-10,11,12,13-tetrahydro-19H-5,18-methanodibenzo[c,f]pyrido[3,2-j][1,5,9]triazacyclotridecine-15,19(14H)-dione]
19 | 63.1 nM | CC[C@H]1NCCc2[nH]c(=O)ccc2N2CN(c3cc(C(F)(F)F)c(F)cc3C2=O)c2ccc(F)cc21 [Example 127, (10R)-10-ethyl-2,8-difluoro-3-(trifluoromethyl)-10,11,12,13-tetrahydro-19H-5,18-methanodibenzo[c,f]pyrido[3,2-j][1,5,9]triazacyclotridecine-15,19(14H)-dione]
